Test results as given in PubChem BioAssay AID2693 (Broad Institute, 2010).
≈ marks a conversion by molar mass, not a printed value. Inconclusive results are not listed. Calls of active or inactive are those of the source.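 Rule for the calls: active = a dose response whose lowest growth-blocking dose, signal 3 SD under solvent wells, sits below the top dose; inconclusive = compound fluoresces without dose trend, or replicates split around top dose; inactive = no growth loss up to the top dose.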

Test system: S. cerevisiae SKY197-pL101 growth, alamar blue fluorescence, 9 h
Assay: S. cerevisiae growth inhibition, dose response, counter-screen for polyadenylation inhibitor project, Alamar Blue fluorescence, MIC (AID 2693)

| SMILES | MIC |
| --- | --- |
| N#CC1(C#N)C2=C(CCCC2)NC(c2ccccc2)C1(C#N)C#N (stereo unspecified) | 50 µM (≈ 15.7 µg/mL) |
| Nc1ncnc2c1ncn2C1OC(CO)CC1O (stereo unspecified) | > 50 µM (inactive) |
| Cc1ccc2nc(/C(C#N)=C/c3ccc([N+](=O)[O-])o3)[nH]c2c1 | 2.3 µM (≈ 0.677 µg/mL) |
| COc1cc(/C=C2/CC/C(=C/c3ccc(O)c(OC)c3)C2=O)ccc1O | > 50 µM (inactive) |
| N#C/C(=C/c1ccc([N+](=O)[O-])o1)c1nc2ccccc2[nH]1 | 2.3 µM (≈ 0.645 µg/mL) |
| Cc1ccc(C(=O)c2no[n+]([O-])c2C(=O)c2ccc(C)cc2)cc1 | 3.1 µM (≈ 0.999 µg/mL) |
| O=C(COC(=O)Cc1ccc(S(=O)(=O)N2CCOCC2)s1)NCc1ccc(Cl)cc1 | > 50 µM (inactive) |
| Cc1ccc(Nc2c(-c3ccc(C)o3)nc3ncccn23)cc1 | > 50 µM (inactive) |
| O=C(Oc1c(-c2ccccc2)c(=O)n2c3c(cccc13)CC2)c1cccc([N+](=O)[O-])c1 | > 50 µM (inactive) |
| Cc1ccc(-c2nn3c(C)nnc3s2)cc1NC(=O)CSc1ccc(Cl)cc1 | > 50 µM (inactive) |
| CCN1/C(=C\C=C\c2sc3ccccc3[n+]2CC)Sc2ccccc21 | 4.8 µM |
| CC(=O)c1ccc(Sc2ccccc2)c([N+](=O)[O-])c1 | > 50 µM (inactive) |
| COc1cc(/C=C2\SC(=S)N(NC(=O)c3ccncc3)C2=O)ccc1O | 25 µM (≈ 9.69 µg/mL) |
| COc1cc(/C=C2/SC(=S)N(Cc3ccccc3)C2=O)cc(OC)c1O | > 50 µM (inactive) |
| O=C(O)CN1C(=O)/C(=C\c2ccc(N3CCCCC3)o2)SC1=S | 37 µM (≈ 13 µg/mL) |
| CCOc1cc(/C=C2\N=C(SC(C)C(N)=O)N(c3ccc(OC(F)F)cc3)C2=O)ccc1O (stereo unspecified) | > 50 µM (inactive) |
